Results taken from patent US10925971B2, “Methods of treating PRLR positive breast cancer” (Regeneron Pharmaceuticals, Inc., priority 2016, dated 2021).
“Also recorded” adds a separate entry of the source.

What was measured:
[1] = system: T47Dv11 tumors; assay: T47Dv11 breast tumor xenograft, single agent and combination with fulvestrant; type: in vivo, C.B.-17 SCID mice; conditions: for Average Tumor Growth Inhibition (%) / Final Tumor Volume (mean ± SD): T47DvII tumors in SCID mice, Day 70
Method: The T47Dv11 model was used to assess the activity of H1H6958N2-DM1 in a model with significant levels of endogenous PRLR. […] Initially, 10×10^6 parental T47D cells were implanted subcutaneously (SC) into the left flank of female C.B.-17 SCID mice (Taconic, Hudson N.Y.). Tumors were supplemented with a 90-day release 1.7 mg estrogen pellet (Innovative Research America). Where T47D tumors were observed, they were excised and cut into 3 mm fragments and subsequently implanted into the left flank of separate female C.B.-17 SCID mice. Subsequent passaging was performed until a large tumor was disaggregated into a single cell suspension. The cells (named T47Dv11) from this tumor were then cultured in vitro and expanded. […] For efficacy studies, mice were implanted with 7.5×10^6 T47Dv11 cells into the left flank of female C.B.-17 SCID mice supplemented with a 90-day release 0.72 mg/pellet estrogen pellet. For MCF7 and MCF7/PRLR tumor xenografts, 2×10^7 MCF7/PRLR cells were implanted SC into the left mammary fat pad of female NCr nude mice (7-8 weeks old) supplemented with 90-day release 0.72 mg/pellet estrogen pellets. Tumors were measured with calipers twice a week for the duration of each study. Tumor volume was calculated using the formula TV=(length×width^2)/2.
After T47Dv11 tumors reached an average volume of ˜150-200 mm^3 (14-16 days post implantation), mice were randomized into treatment groups (n=8-9 mice/group) and received a single dose or three once-weekly doses of H1H6958N2-DM1, control ADC, or vehicle control, administered systemically by intravenous tail-vein injection. […] Tumor size and body weight were measured in vivo twice per week throughout the duration of the study.
Next, the combination of H1H6958N2-DM1 with the SERD fulvestrant was tested in the T47Dv11 xenograft model. Here, the activity of either agent at partially effective doses was compared against the activity of the agents in combination. First, a dose titration study of weekly administration of fulvestrant was performed in order to establish its single agent activity (FIG. 4).
For the subcutaneous tumors, average tumor size as well as tumor growth inhibition relative to the Vehicle treated group were calculated for each group. Tumors were measured with calipers twice a week until the average size of the vehicle group reached 1200 mm^3. Tumor size was calculated using the formula (length×width^2)/2. For all studies, tumor growth inhibition was calculated according to the following formula: (1−((Tfinal−Tinitial)/(Cfinal−Cinitial)))*100, where T (treated group) and C (control group) represent the mean tumor mass on the day the vehicle group reached 1000 mm^3.

[2] = system: PRLR expression in T47DvII cells; assay: PRLR expression after continuous culture with fulvestrant (flow cytometry or western blotting); type: cell-based, human; conditions: continuous culture with 10 or 100 nM, data not shown
[3] = system: MCF7/PRLR tumors; assay: MCF7/PRLR breast cancer xenograft, tumor size and tumor growth inhibition; type: in vivo, NCr nude mice; conditions: NCr Nude mice, multi-dose 0.2 mg/kg
Text: (§1) Briefly, 20×10^6 MCF7/PRLR cells (ATCC HTB-22 transfected with full length hPRLR as previously described) were implanted subcutaneously into the left mammary fat pad of female NCr nude mice. In other studies, 10×10^6 PC3/PRLR (ATCC CRL-1435 transfected with full length hPRLR as previously described) were implanted subcutaneously into the left flank of male SCID mice. Additionally, 10×10^6 parental T47D (ATCC HTB-133) or 7.5×10^10 T47D #11 cells (ATCC HTB-133 serially passaged in vivo as described below) were subcutaneously implanted into the left flank of female CB17 SCID mice. All mice were obtained from Taconic (Hudson, N.Y.). Each bolus of cells was supplemented with a 90-day estrogen release pellet (1.7 mg/pellet; Innovative Research America, Sarasota Fla.). […] Control reagents included PBS vehicle, free methyl-disulfide DM1 (DM1-SMe) and isotype Control 1-DM1.
(§2) In multi-dose studies, mice were dosed once a week for a total of three weeks with tumor volumes and body weights being monitored twice weekly throughout the study. Test ADCs were dosed at 5 and/or 15 mg/kg in the multi-dose studies. In single-dose studies, mice received a single dose of test ADC, and tumor volumes and body weights were monitored twice weekly throughout the study. Test ADCs were dosed at 1, 2.5, 5, and 15 mg/kg in the single-dose studies. Average tumor size as well as tumor growth inhibition relative to the vehicle treated group were calculated for each group. Tumors were measured with calipers twice a week until the average size of the vehicle group reached 1000 mm^3. Tumor size was calculated using the formula (length×width^2)/2. Tumor growth inhibition was calculated according to the following formula: (1−((Tfinal−Tinitial)/(Cfinal−Cinitial)))*100, where T (treated group) and C (control group) represent the mean tumor mass on the day the vehicle group reached 1000 mm^3. […] Results are summarized in Tables 21-25 (multi-dose) and Table 26 (single dose). (NT=not tested in the particular experiment shown).

[4] = system: PC3 cells; assay: In vitro cell viability (cell kill) assay, CCK8; type: cell-based, human; conditions: Table 18
Outline: (§3)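 Viability of hPRLR-expressing 293, PC3 and MCF7 cells is measured after 3 days with non-cleavable-linker DM1 ADCs (final 500 nM–5 pM). IC50 comes from a four-parameter logistic fit of background-corrected percent-of-untreated values over 10 points.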

[5] = system: HEK293 (293) cells; assay: In vitro cell viability (cell kill) assay, CCK8; type: cell-based, human; conditions: 293; Table 19
Outline: as §3

[6] = system: PC3/hPRLR cells; assay: In vitro cell viability (cell kill) assay, CCK8; type: cell-based, human; conditions: Table 18
Outline: as §3

[7] = system: MCF7 (MCF7/ATCC) cells; assay: In vitro cell viability (cell kill) assay, nuclear counts; type: cell-based, human; conditions: MCF7/ATCC
Text: (§4) PRLR-overexpressing cells, including HEK293, PC3, MCF7 and NCI-N87, were generated to assess the ability of anti-PRLR conjugated antibodies to reduce cell viability. For comparative purposes, PC3 and T47D cells with overexpressed ErbB2 were also generated, as well as an MCF7 cell line over-expressing both hPRLR and hErbB2. Briefly, Lipofectamine® 2000-mediated transfection methodology was utilized to generate HEK293 cells expressing human PRLR (HEK293/hPRLR) or human ErbB2 (HEK293/hErbB2). Lipofectamine LTX with Plus Reagent was used to generate PC3 cells expressing human PRLR (PC3/hPRLR) or human ErbB2 (PC3/hErbB2). Lentiviral-mediated transduction was utilized to generate MCF7 cells expressing human PRLR (MCF7/hPRLR), NCI-N87 cells expressing human PRLR (NCI-N87/hPRLR), T47D cells over-expressing human ErbB2 (T47D/hErbB2), and MCF7 cells expressing both human PRLR and human ErbB2 (MCF7/hPRLR/hErbB2). All lines were selected for at least two weeks in complete growth media plus appropriate selection reagents. Stably expressing populations were enriched for PRLR expression via FACS using the anti PRLR antibody Control I.
(§5) Next, the ability of anti-PRLR-DM1 antibody-drug conjugates (i.e., anti-PRLR antibodies conjugated to DM1 via a non-cleavable linker [SMCC]) to reduce cell viability was determined using in vitro cell based assays. Cells were seeded in PDL-coated 96 well plates at 1500 to 10000 cells per well in complete growth media and allowed to grow overnight. For cell viability curves, ADCs or free DM1 (as the methyl disulfide derivative DM1-SMe) were added to the cells at final concentrations ranging from 500 nM to 5 pM and incubated for 3 days. The 293, PC3 and T47D cells were incubated with CCK8 (Dojindo, Rockville, Md.) for the final 1-3 hours and the absorbance at 450 nm (OD450) was determined on a Flexstation3 (Molecular Devices, Sunnyvale, Calif.). MCF7 cells were treated with Hoechst 33342 nuclear stain while being fixed with 4% formaldehyde. Images were acquired on the ImageXpress micro XL (Molecular Devices, Sunnyvale, Calif.) and nuclear counts were determined via Columbus image analysis software (Perkin Elmer, Shelton, Conn.). Background OD450 values (PC3, 293, and T47D) or nuclear counts (MCF7) from digitonin (40 nM) treated cells was subtracted from all wells and viability was expressed as a percentage of the untreated controls. IC50 values were determined from a four-parameter logistic equation over a 10-point response curve (GraphPad Prism).

[8] = system: MCF7/hPRLR (MCF7/PRLR) cells; assay: as above; type: cell-based, human
Text: as §4, §5

[9] = system: T47D#11 tumors; type: in vivo, CB17 SCID mice; conditions: mouse, in vivo, 0.2 mg/kg
Text: as §1, §2

[10] = system: T47D cells; assay: In vitro cell viability (cell kill) assay, CCK8; type: cell-based, human; conditions: T47D, Table 19
Method: as §5

[11] = system: PC3/PRLR tumors; assay: PC3/PRLR xenograft, tumor size and tumor growth inhibition; type: in vivo, SCID mice; conditions: SCID mice, multi-dose 0.2 mg/kg
Text: as §1, §2

[12] = system: TM00107 PDX tumors; assay: TM00107 patient derived xenograft (PDX) breast cancer model, tumor volume; type: in vivo, NOD SCID gamma (NSG) mice; conditions: intravenous every 4 days, 4 doses
Method: Efficacy of H1H6958N2-DM1 was also assessed in a patient derived xenograft (PDX) model of breast cancer that may better represent the response in patients. NOD SCID gamma (NSG) mice bearing tumor fragments of the TM00107 PDX breast cancer tumor were sourced from The Jackson Laboratories. The TM00107 PDX model was derived from an ER+/−/PR−/HER2− metastatic breast adenocarcinoma. PRLR expression was confirmed by microarray analysis and immunohistochemistry on tumor sample slides provided by The Jackson Laboratory (data not shown). When tumors were an average volume of ˜400-600 mm^3 (21 days post implantation), mice were randomized into treatment groups (n=7 mice/group) and were administered H1H6958N2-DM1, control ADC, or vehicle control by intravenous injection once weekly for a total of 4 weeks. A separate treatment group was administered paclitaxel by intravenous injection every 4 days for a total of 4 doses.

[13] = MCF7/PRLR tumors TRIAL #1, Day 52
[14] = MCF7/PRLR tumors TRIAL #2, Day 63
[15] = PC3/PRLR tumors TRIAL #1, Day 63
[16] = PC3/PRLR tumors TRIAL #2, Day 55

Compound: C[C@]12CC[C@@H]3c4ccc(O)cc4C[C@@H](CCCCCCCCC[S+]([O-])CCCC(F)(F)C(F)(F)F)[C@H]3[C@@H]1CC[C@@H]2O (stereo partly drawn) [fulvestrant, reference compound]
- Average Tumor Growth Inhibition (%) ([1]; 150 mg/kg): 52%
- Final Tumor Volume (mean ± SD) ([1]; 150 mg/kg): 660 ± 205 mm^3
- Average Tumor Growth Inhibition (%) ([1]; 250 mg/kg): 74%
- Final Tumor Volume (mean ± SD) ([1]; 250 mg/kg): 433 ± 189 mm^3
- anti-tumor activity ([1]; combination study, individual treatment 150 or 250 mg/kg subcutaneously once weekly): Significant anti-tumor activity
- PRLR expression [2]: did not decrease PRLR expression; also recorded: did not significantly reduce PRLR expression

Compound: COc1cc2cc(c1Cl)N(C)C(=O)C[C@H](OC(=O)[C@H](C)N(C)C(=O)CCSSC)[C@]1(C)O[C@H]1[C@H](C)[C@@H]1C[C@@](O)(NC(=O)O1)[C@H](OC)/C=C/C=C(\C)C2 [DM1-SMe, reference compound]
- Average Tumor Growth Inhibition (%) [3, 13]: 57%
- Final Tumor size mm^3 (mean ± SEM) [3, 13]: 625 ± 141 mm^3
- Average Tumor Growth Inhibition (%) [3, 14]: −33%
- Final Tumor size mm^3 (mean ± SEM) [3, 14]: 1080 ± 451 mm^3
- % Kill [4]: 90%
- IC50 [4]: 0.5 nM
- % Kill [5]: 95%
- IC50 [5]: 1.2 nM
- % Kill [6]: 70%
- IC50 [6]: 1 nM
- % Kill ([7]; Table 18): 80%
- IC50 ([7]; Table 18): 3 nM
- % Kill ([7]; Table 20): 80%
- IC50 ([7]; Table 20): 1.3 nM
- % Kill ([8]; Table 18): 86%
- IC50 ([8]; Table 18): 1.9 nM
- % Kill ([8]; Table 20): 80%
- IC50 ([8]; Table 20): 0.8 nM
- Average Tumor Growth Inhibition (%) [9]: −19%
- Final Tumor size mm^3 (mean ± SEM) [9]: 1433 ± 23 mm^3
- % Kill [10]: 100%
- IC50 ([10]; read-out: IC50): 1.5 nM
- Average Tumor Growth Inhibition (%) [11, 15]: −5%
- Final Tumor size mm^3 (mean ± SEM) [11, 15]: 1361 ± 120 mm^3
- Average Tumor Growth Inhibition (%) [11, 16]: 7%
- Final Tumor size mm^3 (mean ± SEM) [11, 16]: 1147 ± 59 mm^3

Compound: CC(=O)O[C@H]1C(=O)[C@@]2(C)[C@H]([C@H](OC(=O)c3ccccc3)[C@]3(O)C[C@H](OC(=O)[C@H](O)[C@@H](NC(=O)c4ccccc4)c4ccccc4)C(C)=C1C3(C)C)[C@]1(OC(C)=O)CO[C@@H]1C[C@@H]2O [paclitaxel, reference compound]
- tumor growth [12]: did not have an effect on tumor growth
